Experimental findings from patent US20240124434A1, “ATF6 INHIBITORS AND USES THEREOF” (Altos Labs, Inc., priority 2018, published 2024) are described below.

Series [1] in a line: In vitro microsomal stability, mouse liver microsomes. In kind it is in vitro ADME. The note with it: for half-life at […], 1 µM / half-life at 1 μM: mouse, read-out: T1/2 @ mLM; for Rem. @ mLM (%): remaining fraction after 30 min, 1 μM compound, 0.5 mg/mL mouse liver microsomes, 1 mM NADPH. The method in brief: (§1)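 1 μM compound was incubated at 37 °C with 0.5 mg/mL human, mouse or rat liver microsomes and 1 mM NADPH in 100 mM phosphate buffer pH 7.4. Reactions were stopped at 0, 5, 15 and 30 min with cold acetonitrile containing propranolol internal standard.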

Series [2] can be described thus: In vitro microsomal stability, rat liver microsomes. In kind it is in vitro ADME. The note with it: for Rem. @ rLM (%): remaining fraction after 30 min, 1 μM compound, 0.5 mg/mL rat liver microsomes, 1 mM NADPH. The method in brief: as §1
In general terms: Microsomes from liver hold many membrane-bound enzymes, among them those of drug oxidation.

Series [3] deals with CYP3A4 (Homo sapiens (Human), UniProt P08684). Nature of the series: CYP inhibition in human liver microsomes. Here is the method:
(§2) CYP inhibition by test compounds in human liver microsomes (HLM) for seven major CYP450 isoforms CYP1A2, CYP2C9, CYP2D6, CYP2B6, CYP2C8, CYP2C19 and CYP3A4 were assessed. […] 50 μM phenacetin, 2 μM midazolam, 5 μM diclofenac, 50 μM mephenytoin, 80 μM bupropion, and 5 μM dextromethorphan were used as probe substrates of CYP1A2, CYP3A4, CYP2C9, CYP2C19, CYP2B6, and CYP2D6, respectively. The incubation times were 20 min for […], CYP2D6, CYP2C9, CYP2B6, and CYP2C8; 40 min for CYP2C19; and 10 min for CYP 3A4. Following incubations, the reactions were terminated with acetonitrile containing internal standard. The samples were centrifuged and the supernatants were analyzed for the formation of metabolites (1-hydroxymidazolam (CYP3A4), 4-hydroxydiclofenac (CYP2C9), 4-hydroxymephenytoin (CYP2C19) and dextrorphan (CYP2D6), hydroxybupropion (CYP2B6), acetaminophen (CYP1A2), desethylamodiaquine (CYP2C8)) by LC/MS/MS.

The target of series [4] is CYP1A2 (Homo sapiens (Human), UniProt P05177). Nature of the series: CYP inhibition in human liver microsomes. As to the method: as §2
Series [5] deals with CYP2C19 (Homo sapiens (Human), UniProt P33261). Nature of the series: CYP inhibition in human liver microsomes. As to the method: as §2
Series [6] concerns the target CYP2C9 (Homo sapiens (Human), UniProt P11712). Description: CYP inhibition in human liver microsomes. Here is the method: as §2
The target in series [7] is CYP2C8 (Homo sapiens (Human), UniProt P10632). Description: CYP inhibition in human liver microsomes. The note with it: read-out: CYP-2C8, metabolite desethylamodiaquine. As to the method:
as §2

Series [8] deals with CYP2D6 (Homo sapiens (Human), UniProt P10635). Nature of the series: CYP inhibition in human liver microsomes. As to the method:
as §2

Series [9] has as its target CYP2B6 (Homo sapiens (Human), UniProt P20813). Nature of the series: CYP inhibition in human liver microsomes. As to the method: as §2
In series [10] the test system is ATF6. Nature of the series: ERSE ATF6-luciferase reporter assay (thapsigargin-induced ER stress). In kind it is cell-based, human. The note with it: for inhibition at 1 µM: 8 hr. Background: A reporter such as luciferase makes a cellular process visible.
Series [11] in a line: In vitro microsomal stability, human liver microsomes. In kind it is in vitro ADME. The note with it: for Rem. @ hLM (%): remaining fraction after 30 min, 1 μM compound, 0.5 mg/mL human liver microsomes, 1 mM NADPH. The method in brief: as §1
Series [12] in a line: Kinetic solubility (nephelometry). The series is classed as physicochemical. The note with it: aqueous buffer, kinetic from dmso stock; PBS pH 7.4, 1% DMSO, 1 hour at 37° C., light scattering at 625 nm. As to the method:
Concentration (μM) was then calculated by segmental regression. Amiodarone (#A8423 Aldrich) was used as positive control.

For series [13] the following is noted: mouse, in vivo, po, 10 mg/kg.
Experimental: (§3) Tested compounds were formulated at 1 mg/mL as a dosing solution for oral administration in vehicle A: 10% dimethylacetamide (DMAC), 20% propylene glycol, and 40% PEG-400 or vehicle B: 10% Kolliphor® EL and 10% ethanol (EtOH).
(§4) Animals were acclimated for a minimum period of 4 days upon arrival at the testing facility.
(§5) At the day of study, mice were weighed, identified by marking the tail with numbers using a non-toxic permanent marker, and designated into ten experimental groups (n=3 per group).
(§6) Non-dosed mice were used to collect samples of zero time points. […] Blood samples were centrifuged immediately at 9,000 g at 4° C. for 5 minutes and then plasmas were separated. Plasma samples were placed into individually labeled cryovials and stored in a −80° C. freezer until LC/MS/MS bioanalysis.
(§7) The bioanalysis of plasma samples was conducted with a QTRAP 4500 triple quadrupole mass spectrometer (Applied Biosystems SCIEX) in the positive ion mode and interfaced with an Ekspert Ultra LC100 UPLC System (Eksigent). Calibration standards (0.01 to 10 μM) and QCs (0.02, 0.2 and 2.0 μM) were prepared from naïve mouse plasma in parallel with mouse plasma study samples (60 μL) by precipitation with three volumes of ice cold internal standard solution (acetonitrile containing 20 μM of theophylline). The precipitated samples were centrifuged at 6,100 g for 30 min. Following centrifugation, an aliquot of each supernatant was transferred to an autosampler plate and diluted with two volumes of aqueous mobile phase (0.1% formic acid in water). Samples were injected onto a reverse phase analytical column (YMC Triart C18; 2.0×50 mm; 1.9 μm; YMC CO) and eluted with a gradient of 0.1% formic acid in Acetonitrile. Assayed test compound and internal standards were monitored by a multiple reaction monitoring (MRM) experiment using an Analyst software (v1.6.2, Applied Biosystems SCIEX). Quantitation was conducted using a MultiQuant software (v2.1, Applied Biosystems SCIEX) and the resulting calibration curve was fitted with a linear regression and 1/x weighting. The lower limits of quantitation were 1<LLQ <5 ng/mL.
Series [14] in a line: in vivo. The note with it: Balb/c, mouse, po, 10 mg/kg.
Experimental: as §3, §4, §5, §6, §7
Setting [15] is: pH 7.4, intrinsic clearance, mouse liver microsomes, read-out: Clint @ mLM.
Where [16] appears, read: pH 7.4, intrinsic clearance, rat liver microsomes, read-out: Clint @ rLM.
[17] abbreviates: rat, rat liver microsomes, pH 7.4, read-out: T1/2 @ rLM.
The mark [18] stands for this setting: read-out: CYP-3A4, human liver microsomes, probe substrate midazolam.
The mark [19] stands for this setting: read-out: CYP-1A2, human liver microsomes, probe substrate phenacetin.
The mark [20] stands for this setting: read-out: CYP-2C19, human liver microsomes, probe substrate mephenytoin.
Where [21] appears, read: read-out: CYP-2C9, human liver microsomes, probe substrate diclofenac.
Setting [22] is: read-out: CYP-2D6, human liver microsomes, probe substrate dextromethorphan.
The mark [23] stands for this setting: read-out: CYP-2B6, human liver microsomes, probe substrate bupropion.
Where [24] appears, read: Homo sapiens, U2OS, dose-response 30 μM to 1 nM, thapsigargin-induced ER stress, U2-OS ATF6 luc reporter cells, read-out: IC50 ATF6-Luc reporter.
The mark [25] stands for this setting: Homo sapiens, U2OS, 1 μM test compound, thapsigargin-induced ER stress, U2-OS ATF6 luc reporter cells, read-out: Inh. ATF6-Luc @ 1 μM [%].
The mark [26] stands for this setting: human, human liver microsomes, pH 7.4, read-out: T1/2 @ hLM.
Where [27] appears, read: pH 7.4, intrinsic clearance, human liver microsomes, read-out: Clint @ hLM.

Values after ≈ are worked out from the molar mass of the structure shown. Read-outs that look alike come from different tables or passages of the source.

Sequence of CYP2B6 (P20813 whole entry): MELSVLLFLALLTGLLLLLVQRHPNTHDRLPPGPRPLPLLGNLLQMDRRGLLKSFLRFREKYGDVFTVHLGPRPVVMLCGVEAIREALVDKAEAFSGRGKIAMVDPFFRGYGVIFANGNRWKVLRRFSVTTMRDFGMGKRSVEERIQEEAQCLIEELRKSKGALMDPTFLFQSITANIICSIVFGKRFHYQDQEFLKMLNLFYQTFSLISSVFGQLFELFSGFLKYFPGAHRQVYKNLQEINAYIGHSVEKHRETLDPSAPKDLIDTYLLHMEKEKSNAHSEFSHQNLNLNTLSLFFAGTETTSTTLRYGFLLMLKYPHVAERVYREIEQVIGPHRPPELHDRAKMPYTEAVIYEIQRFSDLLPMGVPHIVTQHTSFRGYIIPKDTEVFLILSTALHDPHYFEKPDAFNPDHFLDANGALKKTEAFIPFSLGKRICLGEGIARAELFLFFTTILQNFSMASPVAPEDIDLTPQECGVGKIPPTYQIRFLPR
Sequence of CYP1A2 (P05177 whole entry): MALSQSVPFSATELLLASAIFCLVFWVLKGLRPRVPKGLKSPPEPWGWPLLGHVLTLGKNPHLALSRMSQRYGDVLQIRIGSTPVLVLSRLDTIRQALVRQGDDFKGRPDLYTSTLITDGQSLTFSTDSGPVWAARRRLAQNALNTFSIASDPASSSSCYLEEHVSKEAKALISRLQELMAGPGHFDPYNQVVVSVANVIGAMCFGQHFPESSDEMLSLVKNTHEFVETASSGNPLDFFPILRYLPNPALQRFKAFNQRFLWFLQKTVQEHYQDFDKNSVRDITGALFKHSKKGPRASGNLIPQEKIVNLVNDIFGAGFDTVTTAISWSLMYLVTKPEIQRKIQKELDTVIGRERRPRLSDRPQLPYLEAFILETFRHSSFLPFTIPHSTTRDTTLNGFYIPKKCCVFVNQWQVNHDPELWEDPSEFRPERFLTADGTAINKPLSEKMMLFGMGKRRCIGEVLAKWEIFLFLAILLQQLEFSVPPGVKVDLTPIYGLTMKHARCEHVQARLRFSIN
Sequence of CYP2C8 (P10632 whole entry): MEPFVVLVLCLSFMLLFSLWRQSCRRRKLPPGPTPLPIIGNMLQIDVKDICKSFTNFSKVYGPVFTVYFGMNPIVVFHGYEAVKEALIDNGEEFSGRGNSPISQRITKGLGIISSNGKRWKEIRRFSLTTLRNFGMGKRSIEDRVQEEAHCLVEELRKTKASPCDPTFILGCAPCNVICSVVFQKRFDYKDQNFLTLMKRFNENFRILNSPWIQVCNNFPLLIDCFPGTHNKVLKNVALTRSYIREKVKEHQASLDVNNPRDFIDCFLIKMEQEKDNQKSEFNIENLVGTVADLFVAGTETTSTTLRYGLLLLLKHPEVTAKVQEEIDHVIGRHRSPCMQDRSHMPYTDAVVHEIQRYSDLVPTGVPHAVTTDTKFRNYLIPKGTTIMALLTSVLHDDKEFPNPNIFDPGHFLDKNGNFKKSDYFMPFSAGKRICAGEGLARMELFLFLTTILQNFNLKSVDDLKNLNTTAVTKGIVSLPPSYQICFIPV
Sequence of CYP2D6 (P10635 whole entry): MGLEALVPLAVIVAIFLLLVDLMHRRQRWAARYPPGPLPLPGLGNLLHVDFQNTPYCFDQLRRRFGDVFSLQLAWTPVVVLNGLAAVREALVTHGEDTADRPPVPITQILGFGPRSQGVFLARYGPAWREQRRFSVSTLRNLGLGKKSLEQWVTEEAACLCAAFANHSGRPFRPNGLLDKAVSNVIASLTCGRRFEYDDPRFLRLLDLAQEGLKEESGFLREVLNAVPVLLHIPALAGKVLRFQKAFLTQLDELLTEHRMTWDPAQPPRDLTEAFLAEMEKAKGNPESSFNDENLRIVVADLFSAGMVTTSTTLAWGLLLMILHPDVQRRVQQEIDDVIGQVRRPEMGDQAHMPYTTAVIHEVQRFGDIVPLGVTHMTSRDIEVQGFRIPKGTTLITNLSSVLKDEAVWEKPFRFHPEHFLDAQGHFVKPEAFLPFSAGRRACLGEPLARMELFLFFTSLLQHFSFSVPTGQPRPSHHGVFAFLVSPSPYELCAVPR
Sequence of CYP3A4 (P08684 whole entry, canonical isoform): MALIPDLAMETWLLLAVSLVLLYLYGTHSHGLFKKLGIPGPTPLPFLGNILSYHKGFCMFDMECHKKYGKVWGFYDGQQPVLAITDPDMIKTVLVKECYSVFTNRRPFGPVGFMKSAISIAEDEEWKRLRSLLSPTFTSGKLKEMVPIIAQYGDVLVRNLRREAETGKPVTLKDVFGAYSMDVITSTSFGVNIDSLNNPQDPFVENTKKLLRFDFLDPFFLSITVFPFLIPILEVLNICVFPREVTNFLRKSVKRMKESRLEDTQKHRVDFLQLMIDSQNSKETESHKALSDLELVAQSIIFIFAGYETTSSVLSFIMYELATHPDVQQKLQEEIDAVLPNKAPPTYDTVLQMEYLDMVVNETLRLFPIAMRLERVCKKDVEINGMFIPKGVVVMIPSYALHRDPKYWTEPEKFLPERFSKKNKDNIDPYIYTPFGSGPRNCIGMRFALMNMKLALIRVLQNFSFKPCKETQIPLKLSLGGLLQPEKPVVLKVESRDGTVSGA
Sequence of CYP2C9 (P11712 whole entry): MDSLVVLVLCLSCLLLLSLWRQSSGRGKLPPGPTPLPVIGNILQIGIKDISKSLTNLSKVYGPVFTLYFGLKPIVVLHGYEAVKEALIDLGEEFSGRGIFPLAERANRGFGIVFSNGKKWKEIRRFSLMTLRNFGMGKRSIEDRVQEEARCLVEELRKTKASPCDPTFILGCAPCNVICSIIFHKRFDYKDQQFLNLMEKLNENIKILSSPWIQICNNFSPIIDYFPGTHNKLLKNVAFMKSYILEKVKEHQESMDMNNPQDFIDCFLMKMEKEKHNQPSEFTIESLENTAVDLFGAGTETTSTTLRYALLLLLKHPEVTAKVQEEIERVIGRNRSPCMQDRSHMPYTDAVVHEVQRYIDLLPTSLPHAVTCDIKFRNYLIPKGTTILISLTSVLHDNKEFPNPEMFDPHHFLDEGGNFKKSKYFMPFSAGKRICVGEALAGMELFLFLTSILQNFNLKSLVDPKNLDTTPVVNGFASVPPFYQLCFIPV
Sequence of CYP2C19 (P33261 whole entry): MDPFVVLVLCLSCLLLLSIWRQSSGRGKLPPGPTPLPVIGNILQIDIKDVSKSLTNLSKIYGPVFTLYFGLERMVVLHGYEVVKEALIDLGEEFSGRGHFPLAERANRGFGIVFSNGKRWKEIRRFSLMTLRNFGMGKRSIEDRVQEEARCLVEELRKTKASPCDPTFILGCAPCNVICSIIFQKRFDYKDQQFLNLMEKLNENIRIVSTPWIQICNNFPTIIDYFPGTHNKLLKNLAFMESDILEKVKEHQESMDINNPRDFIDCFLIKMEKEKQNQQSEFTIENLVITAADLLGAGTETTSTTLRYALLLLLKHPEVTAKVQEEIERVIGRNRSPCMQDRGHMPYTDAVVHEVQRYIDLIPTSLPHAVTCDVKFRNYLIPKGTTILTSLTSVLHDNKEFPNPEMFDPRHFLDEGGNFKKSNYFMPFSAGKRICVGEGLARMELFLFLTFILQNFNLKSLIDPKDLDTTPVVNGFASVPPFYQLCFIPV

On to `CC(c1ccc(C(F)(F)F)cc1C(F)(F)F)n1cc(NC(=O)c2cnc(-c3ccccn3)s2)cn1` (stereo not drawn) [Compound 78, N-(1-(1-(2,4-bis(trifluoromethyl)phenyl)ethyl)-1H-pyrazol-4-yl)-2-(pyridin-2-yl)thiazole-5-carboxamide], for which the half-life at […], 1 µM in series [1] (mouse liver microsomes, pH 7.4) is 78.7 min; in [2] (setting [17]), 62.2 min; in series [11] (setting [26]) it was 95.6 min. Besides, the microsomal CLint at […], 1 µM in [1] (setting [15]) is 17.6 µL/min/mg; in series [2] (setting [16]) it was 22.3 µL/min/mg; in series [11] (setting [27]) it was 14.5 µL/min/mg. In addition, the “Rem. @ mLM (%)” value in series [1] is 76.8%. Further, the “Rem. @ rLM (%)” value in series [2] turned out to be 71.6%. The IC50 is greater than 50 µM in series [3] (setting [18]); 22.4 µM in [4] (setting [19]); 5.27 µM in [5] (setting [20]); 5.48 µM in [6] (setting [21]); 1.8 µM in series [7]; 2.78 µM in [8] (setting [22]). Besides, the IC50 in series [9] (setting [23]) was 4.97 µM; in [10] (setting [24]), 1 to 10 µM. The inhibition at 1 µM in series [10] (setting [25]) is less than 25%. The “Rem. @ hLM (%)” value in series [11] amounted to 80.4%.

In the case of `CC(c1ccc(C(F)(F)F)cc1C(F)(F)F)n1cc(NC(=O)c2nnc(-c3cnccn3)s2)cn1` (stereo not drawn) [Compound 136, N-(1-(1-(2,4-bis(trifluoromethyl)phenyl)ethyl)-1H-pyrazol-4-yl)-5-(pyrazin-2-yl)-1,3,4-thiadiazole-2-carboxamide], the half-life at […], 1 µM in series [1] (mouse liver microsomes, pH 7.4) stood at 106 min; in series [11] (setting [26]), 93.9 min. In addition, the microsomal CLint at […], 1 µM in series [1] (setting [15]) turned out to be 13 µL/min/mg; in series [2] (setting [16]), 44 µL/min/mg; in series [11] (setting [27]), 15 µL/min/mg. Further, in [1], the “Rem. @ mLM (%)” value amounted to 78.7%. In addition, the half-life at 1 μM in [2] (setting [17]) amounted to 31.7 min. In series [2], the “Rem. @ rLM (%)” value is listed as 43.9%. The IC50 in series [3] (setting [18]), in series [4] (setting [19]), in [5] (setting [20]), in series [6] (setting [21]), in series [7] and in [8] (setting [22]) was greater than 50 µM each time. Besides, the IC50 in series [9] (setting [23]) was greater than 50 µM; in series [10] (setting [24]), less than 1 µM. In addition, the inhibition at 1 µM in [10] (setting [25]) was greater than 50%. In addition, in series [11], the “Rem. @ hLM (%)” value amounted to 77.8%. Also, the solubility (kinetic) (as a rule, the concentration staying in solution when a stock, usually in DMSO, is diluted into the medium) at 1 h in series [12] came to 2.34 µM (≈ 1.2 µg/mL).

Regarding `CC(c1ccc(C(F)(F)F)cc1C(F)(F)F)n1cc(NC(=O)c2cc(-c3ccco3)on2)cn1` (single isomer, unassigned) [“Enantiomer A” of Example S6, N-(1-(1-(2,4-bis(trifluoromethyl)phenyl)ethyl)-1H-pyrazol-4-yl)-5-(furan-2-yl)isoxazole-3-carboxamide], the half-life at 1 μM in series [1] (mouse liver microsomes, pH 7.4) was 5.97 min; in series [2] (setting [17]), 4.89 min; in series [11] (setting [26]) it was 24 min. Also, the microsomal CLint at 1 μM in series [1] (setting [15]) was 232 µL/min/mg; in [2] (setting [16]), 283 µL/min/mg; in series [11] (setting [27]), 57.8 µL/min/mg. In addition, the “Rem. @ mLM (%)” value in series [1] amounted to 3.05%. Further, in series [2], the “Rem. @ rLM (%)” value is 1.4%. Also, the IC50 in series [3] was greater than 50 µM; in series [4], 15.3 µM; in series [5], 3.54 µM; in series [6], 7.88 µM; in [8], 23.7 µM; in series [9], 4.18 µM. In series [10], the IC50 is less than 1 µM. Also, the “AUCExtr [%]” value in [13] (Balb/c) came out at 1.73%. In series [13] (Balb/c), the “F [%]” value is 9.6%. The “Last time point for AUClast” value in [13] came to 8 h. Further, the “Inh. ATF6-Luc @ 1 μM [%]” value in series [10] (8 h, 1 µM) is listed as “+++ (+++ refers to >50% inhibition at 1 μM test compound)”. The AUC(0-inf) (commonly total exposure, with the tail of the curve extrapolated) in series [14] was found to be 626 ng·h/mL. The AUC(0-t) (commonly the area under the concentration-time curve up to a stated or last time point) in series [14] turned out to be 615 ng·h/mL. In addition, the peak concentration (Cmax) (usually the peak of the concentration-time curve) in series [14] amounted to 579 ng/mL. For the same compound, the Tmax (as a rule, the time from dosing to the highest level) in [14] came out at 30 min. In series [14], the half-life is 96 min. The “Rem. @ hLM (%)” value in series [11] was found to be 41.8%. In series [12], the solubility (kinetic) at 1 h was 27 µM (≈ 13.1 µg/mL).

As to `O=C(Nc1cnn(Cc2ccc(C(F)(F)F)cc2C(F)(F)F)c1)c1cc(-c2ccccn2)on1` [Compound 11, N-(1-(2,4-bis(trifluoromethyl)benzyl)-1H-pyrazol-4-yl)-5-(pyridin-2-yl)isoxazole-3-carboxamide], the half-life at 1 μM was 25.3 min in [1] (mouse liver microsomes, pH 7.4) and 31.3 min in series [2] (setting [17]). Further, the microsomal CLint at […], 1 µM was determined as 55 µL/min/mg in series [1] (setting [15]), 44 µL/min/mg in series [2] (setting [16]) and 21 µL/min/mg in series [11] (setting [27]). In series [1], the “Rem. @ mLM (%)” value is 40.8%. Besides, the “Rem. @ rLM (%)” value in series [2] was 44.8%. Further, the IC50 in series [3] (setting [18]) was greater than 50 µM; in [5] (setting [20]) it was 9.85 µM; in series [6] (setting [21]), 7.77 µM; in series [7], 1.09 µM; in series [8] (setting [22]), greater than 50 µM; in [9] (setting [23]) it was 16.9 µM. For the same compound, the IC50 in series [10] (Homo sapiens, U2OS, read-out: IC50 ATF6-Luc reporter [μM], dose-response 30 μM to 1 nM, thapsigargin-induced ER stress, U2-OS ATF6 luc reporter cells) was less than 1 µM. The “AUCExtr [%]” value in series [13] (Balb/c) is on record as 5.07%. In series [13] (Balb/c), the “F [%]” value is given as 48.6%. Also, the “Vz” value in series [13] (Balb/c) worked out at 8.74 L/kg. The “Last time point for AUClast” value in series [13] was found to be 24 h. Further, the inhibition at 1 µM in series [10] (Homo sapiens, U2OS, 8 h, read-out: Inh. ATF6-Luc @ 1 μM [%], 1 μM test compound, thapsigargin-induced ER stress, U2-OS ATF6 luc reporter cells) is greater than 50%. In [14], this compound gave an AUC(0-inf) of 10300 ng·h/mL. Further, in [14], the exposure AUC(0-t) is 9780 ng·h/mL. In [14], this compound had a Cmax of 2270 ng/mL. Also, the Tmax in [14] was found to be 15 min. The half-life in series [14] was 374 min. The half-life at […], 1 µM in series [11] (setting [26]) is 67.5 min. Moreover, the “Rem. @ hLM (%)” value in [11] is recorded as 73.5%. Besides, the kinetic solubility at 1 h in series [12] was 9.41 µM (≈ 4.53 µg/mL).
